Where two headings read alike, the source gives them in different places.
Columns and labels:
Aβ42 [1] = assay: γ-secretase-modulating activity, Method 2: Aβ42 Alphalisa in supernatant of SKNBE2 cells carrying APP 695-wild type (Table 3b); type: cell-based; conditions: overnight
How it was run: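 Aβ42 in the supernatant was quantified by AlphaLISA sandwich (JRF/cAβ42/26 with JRF/AβN/25). Cells were wild-type APP695 SKNBE2, exposed to compound overnight at 37° C., 5% CO2. Data were normalised to untreated maximum and fitted with a four-parameter curve to give IC50.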

Aβtotal [2] = assay: γ-secretase-modulating activity, Method 2: Aβtotal Alphalisa in supernatant of SKNBE2 cells carrying APP 695-wild type (Table 3b); type: cell-based; conditions: overnight, read-out: IC50 Aβtot
How it was run: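 Secreted Aβtotal was quantified by AlphaLISA pairing an N-terminal antibody (JRF/AβN/25) with biotinylated mid-region 4G8. Wild-type APP 695 SKNBE2 cells received serially varied compound overnight at 37 °C; IC50 came from a 4-parameter nonlinear regression of percent of control against log dose.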

Aβ42 [3] = assay: In vivo efficacy, Method 2: brain soluble Aβ42 lowering 4 h after a single oral dose, ELISA (Table 4b); design: species or system mouse; conditions: dose 30 mg/kg oral dosing
Description: (§1) To determine whether acute administration of an Aβ42 lowering agent would reduce Aβ42 levels in vivo, non-transgenic rodents, e.g. mice or rats were used. Animals treated with the Aβ42 lowering agent were examined and compared to those untreated or treated with vehicle and brain levels of soluble Aβ42 and total Aβ were quantitated by standard techniques, for example, using ELISA. Treatment periods varied from hours (h) to days and were adjusted based on the results of the Aβ42 lowering once a time course of onset of effect could be established.
(§2) A typical protocol for measuring Aβ42 lowering in vivo is shown but it is only one of many variations that could be used to optimize the levels of detectable Aβ. For example, Aβ42 lowering compounds were formulated in 20% of Captisol® (a sulfobutyl ether of β-cyclodextrin) in water or 20% hydroxypropyl β cyclodextrin. The Aβ42 lowering agents were administered as a single oral dose or by any acceptable route of administration to overnight fasted animals. After 4 h, the animals were sacrificed and Aβ42 levels were analysed.
(§3) Blood was collected by decapitation and exsanguinations in EDTA-treated collection tubes. Blood was centrifuged at 1900 g for 10 minutes (min) at 4° C. and the plasma recovered and flash frozen for later analysis. The brain was removed from the cranium and hindbrain. The cerebellum was removed and the left and right hemisphere were separated. The left hemisphere was stored at −18° C. for quantitative analysis of test compound levels. The right hemisphere was rinsed with phosphate-buffered saline (PBS) buffer and immediately frozen on dry ice and stored at −80° C. until homogenization for biochemical assays.
(§4) Mouse brains from non-transgenic animals were resuspended in 8 volumes of 0.4% DEA (diethylamine)/50 mM NaCl containing protease inhibitors (Roche-11873580001 or 04693159001) per gram of tissue, e.g. for 0.158 g brain, add 1.264 ml of 0.4% DEA. All samples were homogenized in the FastPrep-24 system (MP Biomedicals) using lysing matrix D (MPBio #6913-100) at 6 m/s for 20 seconds. Homogenates were centrifuged at 221.300×g for 50 min. The resulting high speed supernatants were then transferred to fresh eppendorf tubes. Nine parts of supernatant were neutralized with 1 part 0.5 M Tris-HCl pH 6.8 and used to quantify Aβtotal and Aβ42.
(§5) To quantify the amount of Aβtotal and Aβ42 in the soluble fraction of the brain homogenates, Enzyme-Linked-Immunosorbent-Assays were used. Briefly, the standards (a dilution of synthetic Aβ1-40 and Aβ1-42, Bachem) were prepared in 1.5 ml Eppendorf tube in Ultraculture, with final concentrations ranging from 10000 to 0.3 pg/ml. The samples and standards were co-incubated with HRPO-labelled N-terminal antibody for Aβ42 detection and with the biotinylated mid-domain antibody 4G8 for Aβtotal detection. 50 μl of conjugate/sample or conjugate/standards mixtures were then added to the antibody-coated plate (the capture antibodies selectively recognize the C-terminal end of Aβ42, antibody JRF/cAβ42/26, for Aβ42 detection and the N-terminus of Aβ, antibody JRF/rAβ/2, for Aβtotal detection). The plate was allowed to incubate overnight at 4° C. in order to allow formation of the antibody-amyloid complex. Following this incubation and subsequent wash steps the ELISA for Aβ42 quantification was finished by addition of Quanta Blu fluorogenic peroxidase substrate according to the manufacturer's instructions (Pierce Corp., Rockford, Ill.). A reading was performed after 10 to 15 min (excitation 320/emission 420).
In this model at least 20% Aβ42 lowering compared to untreated animals would be advantageous.
(§6) The results are shown in Table 4b (dose 30 mg/kg oral dosing): […]

Aβtotal [4] = assay: In vivo efficacy, Method 2: brain soluble Aβtotal lowering 4 h after a single oral dose, ELISA (Table 4b); design: species or system mouse; conditions: dose 30 mg/kg oral dosing
Description: as §1, §2, §3, §4, §5
For Aβtotal detection, a Streptavidine-Peroxidase-Conjugate was added, followed 60 min later by an additional wash step and addition of Quanta Blu fluorogenic peroxidase substrate according to the manufacturer's instructions (Pierce Corp., Rockford, Ill.). A reading was performed after 10 to 15 min (excitation 320 nm/emission 420 nm).
as §6

Row | SMILES | IC50 (Aβ42 [1]) | IC50 (Aβtotal [2]) | IC50 (Aβ42 [1]; Homo sapiens) | IC50 (Aβtotal [2]; Homo sapiens) | Aβ42 (% Ctrl) _Mean (Aβ42 [3]) | Aβtotal (% Ctrl) _Mean (Aβtotal [4])
1 | COc1nc(-c2nc(N3CCCC(c4ccccc4)C3)n(C(C)C)n2)ccc1-n1cnc(C)c1.Cl (racemic) [Compound 80] | 56 nM | 10000 nM |  |  | −20 % Ctrl | −19 % Ctrl
2 | COc1cc(-c2nc(Nc3cc([S+](C)[O-])ccc3F)n(C)n2)ccc1-n1cnc(C)c1 (racemic) [Compound 330] | 603 nM | 68 nM |  |  | −9 % Ctrl | −2 % Ctrl
3 | COc1nc(-c2nc(Nc3cccc(Cl)c3)n(C)n2)ccc1-n1cnc(C)c1 [Compound 100] | 28 nM | > 10000 nM |  |  | 12 % Ctrl | −4 % Ctrl
4 | COc1nc(-c2nc(Nc3cc(Cl)ccc3F)n(C)n2)ccc1-n1cnc(C)c1 [Compound 117] | 60 nM | > 10000 nM |  |  | 44 % Ctrl | 17 % Ctrl
5 | COc1cc(-c2nc3n(n2)CCOC3c2cc(OC(F)(F)F)ccc2F)ccc1-n1cnc(C)c1 (centres unmarked) [Compound 128] | 28 nM | > 10000 nM |  |  | 47 % Ctrl | 24 % Ctrl
6 | COc1nc(-c2nc(Nc3ccccc3C(F)(F)F)n(C)n2)ccc1-n1cnc(C)c1 [Compound 132] | 135 nM | > 10000 nM |  |  | 39 % Ctrl | −1 % Ctrl
7 | COc1cc(-c2nc(Nc3cc(C(F)(F)F)ccc3F)n(CC(C)(C)O)n2)ccc1-n1cnc(C)c1 [Compound 136] | 76 nM | 3020 nM |  |  | −14 % Ctrl | 1 % Ctrl
8 | COc1cc(-c2nc(Nc3cc(C(F)(F)F)cc(C(F)(F)F)c3)n(C)n2)ccc1-n1cnc(C)c1 [Compound 150] | 13 nM | > 10000 nM |  |  | −6 % Ctrl | −8 % Ctrl
9 | COc1nc(-c2nc(Nc3cccc(C(F)(F)F)c3)n(C)n2)ccc1-n1cnc(C)c1 [Compound 153] | 8 nM | > 10000 nM |  |  | 14 % Ctrl | −6 % Ctrl
10 | COc1nc(-c2nc(Nc3ccc(F)cc3C(F)(F)F)n(C)n2)ccc1-n1cnc(C)c1 [Compound 158] | 40 nM | > 10000 nM |  |  | 44 % Ctrl | 3 % Ctrl
11 | COc1nc(-c2nc(Nc3cccc(C(F)(F)F)c3F)n(C)n2)ccc1-n1cnc(C)c1 [Compound 167] | 38 nM | > 15000 nM |  |  | 52 % Ctrl | −1 % Ctrl
12 | COc1cc(-c2nc(N3CCCc4ccccc43)n(C)n2)ccc1-n1cnc(C)c1 [Compound 349] | 257 nM | > 10000 nM |  |  |  | 
13 | COc1cc(-c2nc(Nc3cc(C(F)(F)F)ccc3F)n(C)n2)ccc1-n1ccnc1 [Compound 359] |  |  | 95 nM | > 10000 nM |  | 
14 | COc1nc(-c2nc3n(n2)CCC[C@H]3c2ccc(F)cc2C)ccc1-n1cnc(C)c1 [Compound 361] | 42 nM |  |  |  | 32 % Ctrl | −8 % Ctrl

Further lines, with some results ahead:

Row | IC50 (Aβ42 [1]) | IC50 (Aβtotal [2]) | IC50 (Aβ42 [1]; Homo sapiens) | IC50 (Aβtotal [2]; Homo sapiens) | SMILES | Aβ42 (% Ctrl) _Mean (Aβ42 [3]) | Aβtotal (% Ctrl) _Mean (Aβtotal [4])
15 | 19 nM | > 10000 nM |  |  | COc1cc(-c2nc(Nc3ccccc3C(C)C)n(C)n2)ccc1-n1cnc(C)c1 [Compound 99] | 58 % Ctrl | −2 % Ctrl
16 | 132 nM | > 10000 nM |  |  | COc1cc(-c2nc(Nc3ccccc3F)n(C)n2)ccc1-n1cnc(C)c1 [Compound 105] | 24 % Ctrl | −7 % Ctrl
17 | 13 nM | > 10000 nM |  |  | COc1cc(-c2nc(Nc3cc(Cl)ccc3Cl)n(C)n2)ccc1-n1cnc(C)c1 [Compound 111] | 33 % Ctrl | 15 % Ctrl
18 | 56 nM | > 10000 nM |  |  | COc1cc(-c2nc(Nc3cccc(F)c3Cl)n(C)n2)ccc1-n1cnc(C)c1 [Compound 114] | 53 % Ctrl | 9 % Ctrl
19 | 58 nM | > 10000 nM |  |  | COc1cc(-c2nc(Nc3cc(Cl)ccc3F)n(C)n2)ccc1-n1cnc(C)c1 [Compound 123] | 36 % Ctrl | 31 % Ctrl
20 | 85 nM | > 10000 nM |  |  | COc1cc(-c2nc(Nc3c(F)cccc3Cl)n(C)n2)ccc1-n1cnc(C)c1 [Compound 125] | 2 % Ctrl | 11 % Ctrl
21 | 25 nM | > 10000 nM |  |  | COc1cc(-c2nc(Nc3cccc(Cl)c3C)n(C)n2)ccc1-n1cnc(C)c1 [Compound 129] | 56 % Ctrl | 9 % Ctrl
22 | 50 nM | > 10000 nM |  |  | COc1nc(-c2nc(Nc3cccc(F)c3C(F)(F)F)n(C)n2)ccc1-n1cnc(C)c1 [Compound 138] | 46 % Ctrl | 17 % Ctrl
23 | 20 nM | > 10000 nM |  |  | COc1cc(-c2nc(Nc3cc(C(F)(F)F)cc(F)c3F)n(C)n2)ccc1-n1cnc(C)c1 [Compound 140] | 33 % Ctrl | 8 % Ctrl
24 | 9 nM | > 10000 nM |  |  | COc1cc(-c2nc(Nc3cc(C(F)(F)F)ccc3C(F)(F)F)n(C)n2)ccc1-n1cnc(C)c1 [Compound 144] | 38 % Ctrl | 9 % Ctrl
25 | 23 nM | > 10000 nM |  |  | COc1cc(-c2nc(Nc3cccc(C(F)(F)F)c3F)n(C)n2)ccc1-n1cnc(C)c1 [Compound 148] | 37 % Ctrl | 12 % Ctrl
26 | 19 nM | > 10000 nM |  |  | COc1cc(-c2nc(Nc3ccc(F)c(C(F)(F)F)c3)n(C)n2)ccc1-n1cnc(C)c1 [Compound 152] | 10 % Ctrl | −9 % Ctrl
27 | 78 nM | > 10000 nM |  |  | COc1cc(-c2nc(Nc3cccc(C)c3F)n(C)n2)ccc1-n1cnc(C)c1 [Compound 161] | 45 % Ctrl | 8 % Ctrl
28 | 11 nM | 3630 nM |  |  | COc1cc(-c2nc(Nc3cc(C(F)(F)F)ccc3F)n(C)n2)ccc1-n1cnc(C)c1 [Compound 162] | 35 % Ctrl | 2 % Ctrl
29 | 41 nM | > 10000 nM |  |  | COc1cc(-c2nc(Nc3cccc(Cl)c3C(F)(F)F)n(C)n2)ccc1-n1cnc(C)c1 [Compound 169] | 57 % Ctrl | 9 % Ctrl
30 | 10 nM | > 10000 nM |  |  | COc1cc(-c2nc(Nc3cc(C(F)(F)F)ccc3Cl)n(C)n2)ccc1-n1cnc(C)c1 [Compound 177] | 51 % Ctrl | 11 % Ctrl
31 | 22 nM | > 10000 nM |  |  | COc1cc(-c2nc(Nc3cc(N(C)C)ccc3F)n(C)n2)ccc1-n1cnc(C)c1 [Compound 180] | 51 % Ctrl | 10 % Ctrl
